Our source for the inhibition values is ChEMBL document CHEMBL4130349, “Discovery and structure-activity relationship studies of 2-benzylidene-2,3-dihydro-1H-inden-1-one and benzofuran-3(2H)-one derivatives as a novel class of potential therapeutics for inflammatory bowel disease” (Eur J Med Chem, 2017).

Each structure is given as a SMILES string.

A word on the inhibition: it is the drop in the measured response relative to a control, in per cent.

This experiment relates to HT-29. Description: Inhibition of TNF-alpha-induced adhesion of BCECF-labeled human U937 cells to human HT-29 cells at 10 uM preincubated for 1 hr followed by TNF-alpha challenge measured after 3 hrs by fluorescence microscopic method relative to control. The experiment is classed as functional.

`O=C1/C(=C/c2ccc(O)cc2)Cc2cccc(O)c21`: the inhibition at 10 µM came to 69.8%.
To `O=C1/C(=C/c2ccccn2)Cc2ccccc21` belongs 21.9%; to `O=C1/C(=C/c2cccc(O)c2)Cc2cc(O)ccc21`, 50.2%.
`O=C1/C(=C/c2cccc(F)c2)Cc2ccccc21`: the inhibition at 10 µM stood at 22.1%.
On to `O=C1/C(=C/c2ccc(Cl)s2)Cc2ccccc21`, for which the inhibition at 10 µM stood at 5.7%.
Next, `O=C1/C(=C/c2ccccc2OC(F)(F)F)Cc2ccccc21`: 3.4%; `O=C1/C(=C/c2cccc(O)c2)Cc2c(O)cccc21`: 6.1%.
As to `O=C1/C(=C/c2ccccc2O)Cc2cccc(O)c21`, the inhibition at 10 µM amounted to 67.9%.
On to `O=C1/C(=C/c2ccc(Cl)cc2)Cc2cc(O)ccc21`, for which the inhibition at 10 µM was found to be 0.2%.
As to `O=C1/C(=C/c2ccc(Cl)cc2)Cc2ccc(O)cc21`, the inhibition at 10 µM amounted to 67.9%.
Next, `COc1ccc(/C=C2\Cc3c(O)cccc3C2=O)cc1O`: 0.1%.
For `O=C1/C(=C/c2ccc(Cl)o2)Oc2ccccc21`, the inhibition at 10 µM turned out to be 62.2%.
Next, `O=C1/C(=C/c2ccccc2Cl)Oc2ccccc21`: 50.7%.
Next, `O=C1/C(=C/c2ccccc2Cl)Oc2cc(O)ccc21`: 45.5%.
On to `O=C1/C(=C/c2ccc(F)cc2)Cc2ccccc21`, for which the inhibition at 10 µM is 7.1%.
Turning to `O=C1/C(=C/c2ccccc2O)Cc2ccccc21`, the inhibition at 10 µM turned out to be 63.1%.
For the compound `O=C1/C(=C/c2ccccc2F)Cc2ccccc21`, the inhibition at 10 µM was found to be 27.8%.
As for `O=C1/C(=C/c2ccc(Cl)cc2)Oc2ccccc21`, the inhibition at 10 µM worked out at 68.7%.
To `O=C1/C(=C/c2ccc(-c3ccccc3)cc2)Cc2ccccc21` belongs 62.6%.
Next, `O=C1/C(=C/c2cccc(O)c2)Cc2cccc(O)c21`: 60.5%.
As for `O=C1/C(=C/c2ccccc2O)Cc2c(O)cccc21`, the inhibition at 10 µM turned out to be 30.3%.
Next, `O=C1/C(=C/c2ccc(O)cc2)Oc2ccccc21`: 63.6%; `O=C1/C(=C/c2ccc(C(F)(F)F)cc2)Cc2ccccc21`: 22.5%.
In the case of `O=C1/C(=C/c2ccc(Cl)o2)Cc2ccccc21`, the inhibition at 10 µM was -8.9%.
Consider `O=C1/C(=C/c2ccccc2C(F)(F)F)Cc2ccccc21`, for which the inhibition at 10 µM was 42.8%.
To `O=C1/C(=C/c2ccc(O)cc2)Cc2c(O)cccc21` belongs -1.7%; to `O=C1/C(=C/c2ccc(Cl)cc2)Cc2c(O)cccc21`, 10.6%; to `O=C1/C(=C/c2cccc(Cl)c2)Oc2cc(O)ccc21`, 45.9%.
For `O=C1/C(=C/c2ccc(Cl)cc2)Cc2ccccc21`, the inhibition at 10 µM was -6.1%.
Take `O=C1/C(=C/c2cccc(-c3ccccc3)c2)Cc2ccccc21`: the inhibition at 10 µM was 33.4%.
Next, `O=C1/C(=C/c2ccccc2Cl)Cc2ccccc21`: -4.3%; `O=C1/C(=C/c2ccccc2O)Cc2cc(O)ccc21`: 32.1%; `O=C1/C(=C/c2cccnc2)Cc2ccccc21`: 28.7%.
Take `O=C1/C(=C/c2cccc(O)c2)Cc2ccccc21`: the inhibition at 10 µM came out at 43.7%.
To `COc1ccc(/C=C2\Cc3cccc(O)c3C2=O)cc1O` belongs 35%; to `O=C1/C(=C/c2ccc(O)cc2)Cc2cc(O)ccc21`, 45.4%; to `O=C1/C(=C/c2cccc(Cl)c2)Oc2ccccc21`, 40%.
Next, `O=C1/C(=C/c2cccc(O)c2)Cc2ccc(O)cc21`: 62.7%.
To `O=C1/C(=C/c2cccc([N+](=O)[O-])c2)Cc2ccccc21` belongs 46.5%; to `O=C1/C(=C/c2cccc(OC(F)(F)F)c2)Cc2ccccc21`, 9.9%.
`O=C1/C(=C/c2cccc(C(F)(F)F)c2)Cc2ccccc21`: the inhibition at 10 µM amounted to 54.9%.
Turning to `O=C1/C(=C/c2cccc(Cl)c2)Cc2ccccc21`, the inhibition at 10 µM is -2.1%.
With `COc1ccc(/C=C2\Cc3ccc(O)cc3C2=O)cc1O`, the inhibition at 10 µM was 12%.
